The subject of the test is c-myc in 22RV-1 cells. Briefly: Human c-myc ELISA assay. Format: cell-based. The following applies: Homo sapiens; for Emax: 22Rv1, 18 h, read-out: Degradation of BRD4: Maximum inhibition (%) c-Myc ELISA in 22RV1 cells; for DC50: 22Rv1, read-out: Degradation of BRD4: DC50 (uM) c-Myc ELISA in 22RV1 cells. The method in brief:
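22RV-1 cells treated 18 h with 8-point 1:3 compound dilutions (final top 300 nM or 1 μM, 0.1% DMSO). Cells lysed in RIPA buffer with protease/phosphatase inhibitors, and c-myc protein in cleared lysate quantified by ELISA against a standard curve. DC50 reported for c-myc suppression.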
In general terms: In an ELISA, binding on a coated surface is turned into a signal by an enzyme label.

Structures are written as SMILES. A value given as a limit tells only on which side of the number the result lay.

In the case of `Cc1ncsc1-c1ccc([C@H](C)NC(=O)[C@@H]2C[C@@H](O)CN2C(=O)[C@@H](NC(=O)COc2ccc(O[C@H]3C[C@H](NC(=O)C[C@@H]4N=C(c5ccc(Cl)cc5)c5c(sc(C)c5C)-n5c(C)nnc54)C3)nc2)C(C)(C)C)cc1` [Example 141, (2S,4R)-1-[(2S)-3,3-dimethyl-2-[2-({6-[(1,3trans)-3-{2-[(9S)-7-(4-chlorophenyl)-4,5,13-trimethyl-3-thia-1,8,11,12-tetraazatricyclo[8.3.0.0^2,^6]trideca-2(6),4,7,10,12-pentaen-9-yl]acetamido}cyclobutoxy]pyridin-3-yl}oxy)acetamido]butanoyl]-4-hydroxy-N-[(1S)-1-[4-(4-methyl-1,3-thiazol-5-yl)phenyl]ethyl]pyrrolidine-2-carboxamide], the Emax amounted to 98% and the DC50 (in general, the concentration giving 50% degradation) was under 0.01 µM.

Take `Cc1ncsc1-c1ccc(CNC(=O)[C@@H]2C[C@@H](O)CN2C(=O)[C@@H](NC(=O)COCCOCCOc2ccc3c(c2)c2c(C(N)=O)cc(-c4c(C)noc4C)cc2n3Cc2ccccc2)C(C)(C)C)cc1` [Example 174]: the Emax was 96.4% and the DC50 was in the range of 0.01 to 0.1 µM.

On to `Cc1ncsc1-c1ccc([C@H](C)NC(=O)[C@@H]2C[C@@H](O)CN2C(=O)[C@@H](NC(=O)COC/C=C\COCCNC(=O)C[C@@H]2N=C(c3ccc(Cl)cc3)c3c(sc(C)c3C)-n3c(C)nnc32)C(C)(C)C)cc1` [Example 146, (2S,4R)-1-[(2S)-2-(2-{[(2Z)-4-(2-{2-[(9S)-7-(4-chlorophenyl)-4,5,13-trimethyl-3-thia-1,8,11,12-tetraazatricyclo[8.3.0.0^2,^6]trideca-2(6),4,7,10,12-pentaen-9-yl]acetamido}ethoxy)but-2-en-1-yl]oxy}acetamido)-3,3-dimethylbutanoyl]-4-hydroxy-N-[(1S)-1-[4-(4-methyl-1,3-thiazol-5-yl)phenyl]ethyl]pyrrolidine-2-carboxamide], for which the Emax is 100% and the DC50 was under 0.01 µM.

For the molecule `Cc1ncsc1-c1ccc([C@H](C)NC(=O)[C@@H]2C[C@@H](O)CN2C(=O)[C@@H](NC(=O)/C=C/c2cccc(OCCNC(=O)C[C@@H]3N=C(c4ccc(Cl)cc4)c4c(sc(C)c4C)-n4c(C)nnc43)c2)C(C)(C)C)cc1` [Example 122], the Emax was determined as 100% and the half-maximal degradation concentration (DC50) was under 0.01 µM.

Take `Cc1ncsc1-c1ccc([C@H](C)NC(=O)[C@@H]2C[C@@H](O)CN2C(=O)[C@@H](NC(=O)/C=C/c2cc(F)cc(O[C@@H](C)CNC(=O)C[C@@H]3N=C(c4ccc(Cl)cc4)c4c(sc(C)c4C)-n4c(C)nnc43)c2)C(C)(C)C)cc1` [Example 201]: the Emax was determined as 94.1% and the 50% degradation concentration (DC50) was under 0.01 µM.

As to `Cc1ncsc1-c1ccc([C@H](C)NC(=O)[C@@H]2C[C@@H](O)CN2C(=O)[C@@H](NC(=O)/C=C/c2ccc(F)c(O[C@@H](C)CNC(=O)C[C@@H]3N=C(c4ccc(Cl)cc4)c4c(sc(C)c4C)-n4c(C)nnc43)c2)C(C)(C)C)cc1` [Example 160], the Emax was 94.5% and the 50% degradation concentration (DC50) was under 0.01 µM.

For `Cc1ncsc1-c1ccc([C@H](C)NC(=O)[C@@H]2C[C@@H](O)CN2C(=O)[C@@H](C(C)C)n2cc(-c3ccnc(N4CCN(C(=O)C[C@@H]5N=C(c6ccc(Cl)cc6)c6c(sc(C)c6C)-n6c(C)nnc65)CC4)c3)cn2)cc1` [Example 323], the Emax amounted to 43% and the 50% degradation concentration (DC50) is over 1 µM.

Regarding `Cc1ncsc1-c1ccc(CNC(=O)[C@@H]2C[C@@H](O)CN2C(=O)C(c2cc(OCCCCCNC(=O)C[C@@H]3N=C(c4ccc(Cl)cc4)c4c(sc(C)c4C)-n4c(C)nnc43)no2)C(C)C)cc1` (stereo partly shown) [Example 90], the Emax amounted to 100% and the DC50 was under 0.01 µM.

For `Cc1ncsc1-c1ccc(CNC(=O)[C@@H]2C[C@@H](O)CN2C(=O)[C@@H](NC(=O)COCCCOc2ccc(-c3ccc(NC(=O)C[C@@H]4N=C(c5ccc(Cl)cc5)c5c(sc(C)c5C)-n5c(C)nnc54)cn3)cc2F)C(C)(C)C)cc1` [Example 23], the Emax worked out at 91% and the half-maximal degradation concentration (DC50) was in the range of 0.01 to 0.1 µM.

For `Cc1ncsc1-c1ccc([C@H](C)NC(=O)[C@@H]2C[C@@H](O)CN2C(=O)[C@@H](NC(=O)/C=C/c2cccc(O[C@H](C)CNC(=O)C[C@@H]3N=C(c4ccc(Cl)cc4)c4c(sc(C)c4C)-n4c(C)nnc43)c2)C(C)(C)C)cc1` [Example 159], the Emax was found to be 96.5% and the DC50 is under 0.01 µM.

Consider `Cc1ncsc1-c1ccc(CNC(=O)[C@@H]2C[C@@H](O)CN2C(=O)[C@@H](NC(=O)COCCOCCNC(=O)C[C@@H]2N=C(c3ccc(Cl)cc3)c3c(sc(C)c3C)-n3c(C)nnc32)C(C)(C)C)cc1` [Example 41, (2S,4R)-1-[(2S)-2-{2-[2-(2-{2-[(9S)-7-(4-chlorophenyl)-4,5,13-trimethyl-3-thia-1,8,11,12-tetraazatricyclo[8.3.0.0^2,^6]trideca-2(6),4,7,10,12-pentaen-9-yl]acetamido}ethoxy)ethoxy]acetamido}-3,3-dimethylbutanoyl]-4-hydroxy-N-{[4-(4-methyl-1,3-thiazol-5-yl)phenyl]methyl}pyrrolidine-2-carboxamide], for which the Emax worked out at 94% and the DC50 is 0.1 to 1 µM.

For the molecule `Cc1ncsc1-c1ccc(CNC(=O)[C@@H]2C[C@@H](O)CN2C(=O)[C@@H](NC(=O)COCCO[C@H]2C[C@H](NC(=O)C[C@@H]3N=C(c4ccc(Cl)cc4)c4c(sc(C)c4C)-n4c(C)nnc43)C2)C(C)(C)C)cc1` [Example 137], the Emax came out at 86.9% and the DC50 was in the range of 0.1 to 1 µM.

Take `Cc1ncsc1-c1ccc(CNC(=O)[C@@H]2C[C@@H](O)CN2C(=O)[C@@H](NC(=O)CCN2CCC(OCCNC(=O)C[C@@H]3N=C(c4ccc(Cl)cc4)c4c(sc(C)c4C)-n4c(C)nnc43)CC2)C(C)(C)C)cc1` [Example 123]: the Emax was found to be 19.7% and the half-maximal degradation concentration (DC50) is over 1 µM.

Take `Cc1ncsc1-c1ccc(CNC(=O)[C@@H]2C[C@@H](O)CN2C(=O)[C@@H](NC(=O)COCCCOc2ccc(-c3ccc(NC(=O)C[C@@H]4N=C(c5ccc(Cl)cc5)c5c(sc(C)c5C)-n5c(C)nnc54)c(F)c3)nc2)C(C)(C)C)cc1` [Example 24]: the Emax worked out at 87.5% and the half-maximal degradation concentration (DC50) fell in the range of 0.01 to 0.1 µM.

Turning to `Cc1ncsc1-c1ccc(CNC(=O)[C@@H]2C[C@@H](O)CN2C(=O)[C@@H](c2cc(OCCN3CCC(NC(=O)C[C@@H]4N=C(c5ccc(Cl)cc5)c5c(sc(C)c5C)-n5c(C)nnc54)CC3)no2)C(C)C)cc1` [Example 314], the Emax turned out to be 87% and the half-maximal degradation concentration (DC50) is under 0.01 µM.

`Cc1ncsc1-c1ccc([C@H](C)NC(=O)[C@@H]2C[C@@H](O)CN2C(=O)[C@@H](NC(=O)COc2ccc(N3CC[C@H](NC(=O)C[C@@H]4N=C(c5ccc(Cl)cc5)c5c(sc(C)c5C)-n5c(C)nnc54)C3)nc2)C(C)(C)C)cc1` [Example 236]: the Emax worked out at 88.9% and the DC50 was in the range of 0.01 to 0.1 µM.

In the case of `Cc1ncsc1-c1ccc([C@H](C)NC(=O)[C@@H]2C[C@@H](O)CN2C(=O)[C@@H](NC(=O)CCc2cc(OCCNC(=O)C[C@@H]3N=C(c4ccc(Cl)cc4)c4c(sc(C)c4C)-n4c(C)nnc43)ccc2F)C(C)(C)C)cc1` [Example 142, (2S,4R)-1-[(2S)-2-{3-[5-(2-{2-[(9S)-7-(4-chlorophenyl)-4,5,13-trimethyl-3-thia-1,8,11,12-tetraazatricyclo[8.3.0.0^2,^6]trideca-2(6),4,7,10,12-pentaen-9-yl]acetamido}ethoxy)-2-fluorophenyl]propanamido}-3,3-dimethylbutanoyl]-4-hydroxy-N-[(1S)-1-[4-(4-methyl-1,3-thiazol-5-yl)phenyl]ethyl]pyrrolidine-2-carboxamide], the Emax worked out at 98% and the DC50 is under 0.01 µM.

Turning to `Cc1ncsc1-c1ccc(CNC(=O)[C@@H]2C[C@@H](O)CN2C(=O)[C@@H](NC(=O)COCCCOCC#Cc2ccc([C@H](C)NC(=O)C[C@@H]3N=C(c4ccc(Cl)cc4)c4c(sc(C)c4C)-n4c(C)nnc43)cc2)C(C)(C)C)cc1` [Example 40], the Emax was 97.5% and the DC50 is 0.01 to 0.1 µM.

Consider `Cc1ncsc1-c1ccc([C@H](C)NC(=O)[C@@H]2C[C@@H](O)CN2C(=O)[C@H](C(C)C)n2cc(-c3ccnc(N4CC(NC(=O)C[C@@H]5N=C(c6ccc(Cl)cc6)c6c(sc(C)c6C)-n6c(C)nnc65)C4)c3)cn2)cc1` [Example 248], for which the Emax came to 95.9% and the 50% degradation concentration (DC50) fell in the range of 0.01 to 0.1 µM.

As to `Cc1ncsc1-c1ccc([C@H](C)NC(=O)[C@@H]2C[C@@H](O)CN2C(=O)[C@H](n2cc(-c3ccnc(O[C@H]4C[C@H](NC(=O)C[C@@H]5N=C(c6ccc(Cl)cc6)c6c(sc(C)c6C)-n6c(C)nnc65)C4)c3)cn2)C(C)(C)C)cc1` [Example 233], the Emax is 26% and the 50% degradation concentration (DC50) was over 1 µM.

As for `Cc1ncsc1-c1ccc([C@H](C)NC(=O)[C@@H]2C[C@@H](O)CN2C(=O)[C@@H](NC(=O)CN2CCC(N3CCCN(C(=O)C[C@@H]4N=C(c5ccc(Cl)cc5)c5c(sc(C)c5C)-n5c(C)nnc54)CC3)CC2)C(C)(C)C)cc1` [Example 333], the Emax stood at 88% and the 50% degradation concentration (DC50) is 0.01 to 0.1 µM.

Turning to `Cc1ncsc1-c1ccc([C@@H](CO)NC(=O)[C@@H]2C[C@@H](O)CN2C(=O)[C@@H](NC(=O)CN2CCC(O[C@H]3C[C@H](NC(=O)C[C@@H]4N=C(c5ccc(Cl)cc5)c5c(sc(C)c5C)-n5c(C)nnc54)C3)CC2)C(C)(C)C)cc1` [Example 352, (2S,4R)-1-[(2S)-3,3-dimethyl-2-(2-{4-[(1,3-trans)-3-{2-[(9S)-7-(4-chlorophenyl)-4,5,13-trimethyl-3-thia-1,8,11,12-tetraazatricyclo[8.3.0.0^2,^6]trideca-2(6),4,7,10,12-pentaen-9-yl]acetamido}cyclobutoxy]piperidin-1-yl}acetamido)butanoyl]-4-hydroxy-N-[(1S)-2-hydroxy-1-[4-(4-methyl-1,3-thiazol-5-yl)phenyl]ethyl]pyrrolidine-2-carboxamide], the Emax is under 20% and the half-maximal degradation concentration (DC50) is over 1 µM.

Regarding `Cc1ncsc1-c1ccc([C@H](C)NC(=O)[C@@H]2C[C@@H](O)CN2C(=O)[C@@H](NC(=O)[C@@H](C)OCCCOCCNC(=O)C[C@@H]2N=C(c3ccc(Cl)cc3)c3c(sc(C)c3C)-n3c(C)nnc32)C(C)(C)C)cc1` [Example 154], the Emax was 94.5% and the DC50 was under 0.01 µM.

The record behind these values is patent US11554171B2, “Compounds and methods for the targeted degradation of bromodomain-containing proteins” (Arvinas Operations, Inc., priority 2015, dated 2023).
